Data as given in patent US20170010280A1, “GDF15 AS BIOMARKER FOR DIAGNOSING MITOCHONDRIAL DISEASES” (TOKYO METROPOLITAN GERIATRIC HOSPITAL AND INSTITUTE OF …, priority 2014, published 2017).
Read-outs that look alike come from different tables or passages of the source.

Experiments:
2SA cells (control cell) [1] = conditions: high concentration, non-patent document 1; cited from earlier work
[2] = test system: 2SD cells (mitochondrial disease model cell); assay: exhaustive gene expression analysis (microarray) after lactate or pyruvate treatment; type: cell-based, human
Source text: (i) Cybrid cells established from myoblasts in MELAS (mitochondrial myopathy, encephalopathy, lactic acidosis, and stroke-like episodes), which is relatively high incident among mitochondrial diseases patient and human osteosarcoma 143B cells were used in the experiment. Specifically, myoblast cells from MELAS patients lacking the cell nuclei were fused with human osteosarcoma-derived 143B cells lacking mitochondrial DNA (mtDNA). From some fused cell lines, a cell line without m.3243A>G mutation in mtDNA was used as control cell (2SA) and a cell line with m.3243A>G mutation with 94% was used as mitochondrial disease model cell (2SD) (the mutation ratio is not 100%, because mitochondria is heteroplasmy). Cells were cultured in high-glucose Dulbecco's modified Eagle's medium (DMEM) supplemented with 10% FBS, 1 mM sodium pyruvate, and 0.4 mM uridine at 37° C. under a humidified atmosphere of 5% CO2. Total RNA was isolated from cells by using a miRNeasy mini kit (Qiagen, Venlo, Netherlands). One hundred nanograms of total RNA was labeled and amplified with a low input quick amp labeling kit (Agilent Technologies, Santa Clara, Calif., USA) used according to the manufacturer's instructions. The labeled cRNA was hybridized to the Agilent SurePrint G3 Human GE 8×60K Microarray in a rotating hybridization oven at 10 rpm for 20 h at 65° C. After hybridization, the microarrays were washed according to the manufacturer's instructions and scanned on an Agilent DNA Microarray Scanner with Scan Control software. The resulting images were processed, and raw data were collected by using Agilent Feature Extraction software. Expression data were analyzed by using GeneSpring GX 11 (Agilent Technologies). The signal intensity of each probe was normalized by a percentile shift, in which each value was divided by the 75th percentile of all values in its array. For pairwise comparison analysis, only the probes that had expression flags present under at least one condition were considered. The list was analyzed with Ingenuity Pathways Analysis software (Ingenuity Systems, Redwood, Calif., USA). (i) 2SA cells and 2SD cells were collected at 0, 4, and 8 hours after treatment of 10 mM lactate or 10 mM of pyruvate. After RNA were extracted from these cells, exhaustive gene expression analysis were performed using microarray analysis.

2SA cells (control cell) [3] = assay: metabolome analysis of energy metabolism; type: cell-based, human; conditions: high concentration
Description: (§1) (ii) Metabolome analysis were performed using 2SA cells and 2SD cells. […] The energy metabolism disorder has become remarkable 4 hours after treatment of high concentration of lactic acid (10 mM) in 2SD cells, and the phenomenon was not observed after treatment of high concentration of pyruvic acid (10 mM). The energy metabolism disorder was not observed after treatment of high concentration of lactic acid in 2SA cells. Based on the results, we came up with the forecast that the genes expressed in 2SD cells with energy metabolism disorders in a high concentration of lactic acid may be new biomarkers that reflects the energy metabolic disorder of mitochondrial disease patients.

2SD cells [4] = assay: metabolome analysis of energy metabolism; type: cell-based, human; conditions: 10 mM, 4 hours after treatment
Description: as §1

2SD cells [5] = conditions: 10 mM, 4 hours after treatment, non-patent document 1; cited from earlier work
2SD cells [6] = assay: quantitative RT-PCR of GDF15, INHBE and IL1A expression; type: cell-based, human; conditions: 10 mM, 4 and 8 hours after treatment
Description: Total RNA was isolated from cells with miRNeasy-minikit (Qiagen), and reverse transcribed to cDNA with a High Capacity cDNA Reverse Transcription Kit (Life Technologies, Carlsbad, Calif., USA) used according to the manufacturer's protocols. Real-time PCR was performed on the StepOnePlus Real-Time PCR System (Life Technologies) using Power SYBR Green PCR Master Mix. 18S rRNA gene was used as an internal control for normalization. The sequences of primers are listed in Table 1(The numbers in the sequence listing, SEQ ID NO: 1 to 1 stage left, SEQ ID NO: 2 to the right sequentially subjected to SEQ ID NO: 8.).
(iv) In order to determine the expression level of GDF15, INHBE and IL1A in cells, quantitative RT-PCRs were performed. The expression level of GDF15, INHBE, and IL1A were increased at 4 and 8 hours after treatment with 10 mM lactate in 2SD cells, otherwise they were not changed after treatment with 10mM pyruvate. The expression level of GDF15 was higher in 2SD cells than in 2SA cells at 0 hour. On the results, the reproducibility of the microarray data were confirmed. GDF15, INHBE, and IL1A were identified as biomarkers for mitochondrial diseases (FIG. 2 to FIG. 4).

2SD cells [7] = assay: ELISA of GDF15 concentration in culture medium; type: cell-based, human; conditions: 10 mM lactate, medium cultured 24 h
Description: Cells were placed on 60-mm dishes 1 day before replacing the medium with fresh medium. Conditioned medium cultured for 24 h was collected, and the particulates were removed by centrifugation (at 500×g for 10 min, at 10,000×g for 30 min). The GDF15 and INHBE concentrations in the supernatants and in the sera of patients were determined in duplicate by using a Human GDF-15 Immunoassay (DGD150, R&D Systems, Minneapolis, Minn., USA) and enzyme-linked immunosorbent assay kit for Inhibin Beta E (E90048Hu, Uscn Life Science, Wuhan, Hubei, PRC) according to the manufacturer's instructions. For measuring IL1A and other cytokine concentrations, the sera were subjected to a multiplex suspension array, Bio Plex Pro Human Cytokine Grp II Panel 21-Plex (MF0-005KMII, Bio-Rad, Hercules, Calif., USA). The cytokines measured by use of this array were the following: IL-2Rα, IL-3, IL-12 (p40), IL-16, IL-18, CTACK, GRO-α, HGF, IFN-α2, LIF, MCP-3, M-CSF, MIF, MIG, β-NGF, SCF, SCGF-β, SDF-1α, TNF-β, and TRAIL.
(v) The concentrations of three secreted proteins as candidate biomarkers in cell culture were measured by ELISA and multiplex suspension arrays. […] Other secreted proteins could not be measured under the detection limit.

[8] = test system: mitochondrial disease patients; assay: sodium pyruvate therapy for mitochondrial disease patients; type: in vivo, human; conditions: patients n=10, 0.3 g/kg to 2 g/kg, over seven years
Source text: 4. Study of sodium pyruvate therapy for mitochondrial disease patients For mitochondrial disease patients (n=10), sodium pyruvate (0.3 g/kg to 2 g/kg) had been administered for over seven years. During the period, the transition of
FGF-21 and GDF-15 had been determined and parameters of other therapeutic effects had been investigated. The mitochondrial disease patients contained PDH E1A deficiency, MELAS/cardiomyopathy with A3243G mutation, and MELAS/Leigh syndrome with G13513A mutation in the ND5 gene.

[9] = 10 mM lactate, 8 h vs 0 h after lactate treatment
[10] = lactate vs pyruvate treatment at 8 h

## CC(O)C(=O)O (stereo not shown) [lactate, lactic acid]
2SA cells (control cell) [1]
  energy metabolism disorder: not observed
[2]; [9]
  Fold Change L-8/L-0, ADAMTS17: 3.5
  Fold Change L-8/L-0, ADM2: 10.3
  Fold Change L-8/L-0, AMTN: 5.0
  Fold Change L-8/L-0, APOL6: 6.2
  Fold Change L-8/L-0, AREG: 14.0
  Fold Change L-8/L-0, C1QTNF1: 2.6
  Fold Change L-8/L-0, C12orf39: 6.3
  Fold Change L-8/L-0, CLEC3B: 2.1
  Fold Change L-8/L-0, CXCL1: −3.4
  Fold Change L-8/L-0, DKK1: −2.1
  Fold Change L-8/L-0, ECM2: 11.8
  Fold Change L-8/L-0, GDF15: 27.4
  Fold Change L-8/L-0, HECW2: 2.4
  Fold Change L-8/L-0, IGFALS: 2.3
  Fold Change L-8/L-0, IGFBPI: 2.3
  Fold Change L-8/L-0, IL1A: 7.6
  Fold Change L-8/L-0, IL23A: 4.4
  Fold Change L-8/L-0, INHBE: 15.0
  Fold Change L-8/L-0, MMP3: 9.8
  Fold Change L-8/L-0, PDGFA: 2.2
  Fold Change L-8/L-0, PDGFB: 2.8
  Fold Change L-8/L-0, PDZRN3: −2.4
  Fold Change L-8/L-0, SCG5: 5.2
  Fold Change L-8/L-0, SLC39A10: −2.3
  Fold Change L-8/L-0, SPOCK2: 5.1
  Fold Change L-8/L-0, STC2: 3.4
  Fold Change L-8/L-0, VEGFA: 3.4
[2]; [10]
  Fold Change L-8/P-8, ADAMTS17: 2.2
  Fold Change L-8/P-8, ADM2: 3.0
  Fold Change L-8/P-8, AMTN: 3.9
  Fold Change L-8/P-8, APOL6: 3.8
  Fold Change L-8/P-8, AREG: 2.2
  Fold Change L-8/P-8, C1QTNF1: 2.9
  Fold Change L-8/P-8, C12orf39: 6.7
  Fold Change L-8/P-8, CLEC3B: 2.2
  Fold Change L-8/P-8, CXCL1: −2.6
  Fold Change L-8/P-8, DKK1: −2.3
  Fold Change L-8/P-8, ECM2: 9.0
  Fold Change L-8/P-8, GDF15: 14.8
  Fold Change L-8/P-8, HECW2: 2.1
  Fold Change L-8/P-8, IGFALS: 2.5
  Fold Change L-8/P-8, IGFBPI: 2.1
  Fold Change L-8/P-8, IL1A: 6.0
  Fold Change L-8/P-8, IL23A: 2.8
  Fold Change L-8/P-8, INHBE: 9.4
  Fold Change L-8/P-8, MMP3: 4.2
  Fold Change L-8/P-8, PDGFA: 2.2
  Fold Change L-8/P-8, PDGFB: 3.8
  Fold Change L-8/P-8, PDZRN3: −2.0
  Fold Change L-8/P-8, SCG5: 3.0
  Fold Change L-8/P-8, SLC39A10: −2.9
  Fold Change L-8/P-8, SPOCK2: 6.6
  Fold Change L-8/P-8, STC2: 2.6
  Fold Change L-8/P-8, VEGFA: 2.5
2SA cells (control cell) [3]
  energy metabolism disorder: not observed
2SD cells [4]
  energy metabolism disorder: remarkable
2SD cells [5]
  energy metabolism disorder: remarkable
2SD cells [6]
  expression level of GDF15: increased
  expression level of IL1A: increased
  expression level of INHBE: increased
2SD cells [7]
  concentration of GDF15 in culture medium: increased

## CC(=O)C(=O)O [pyruvate, pyruvic acid]
2SD cells [4]
  energy metabolism disorder: not observed
2SD cells [5]
  energy metabolism disorder: not observed
2SD cells [6]
  expression level of GDF15: not changed
  expression level of IL1A: not changed
  expression level of INHBE: not changed

## CC(=O)C(=O)[O-].[Na+] [sodium pyruvate]
[8]
  concentration of GDF-15: significantly reduced
  concentration of alanine: significantly reduced
  concentration of lactate: significantly reduced
  concentration of pyruvate: significantly reduced
  side effects: no side effects were observed
  therapeutic effect: highly effective therapy
